For one experiment, the system named is C-kinase. The experiment in a line: Inhibition of C-kinase activity (liposome method, histone III-S, 32P-ATP). It counts as biochemical, human. The conditions noted are these: for inhibitory activity of C-kinase: conclusion in words from Tables I, II and Figs. 2, 3; for C-kinase ³²P incorporation %: relative to phosphatidyl-serine, diolein, Ca⁺² control = 100; for Inhibition of C-kinase (concentration in »M yielding 50% inhibition): C-kinase from A431 cells. Also noted: C-kinase ³²P incorporation: unit: cpm. The protocol: A431 cells were grown in a mixture of DME and Ham's F-12 medium (weight ratio 1:1) supplemented with 10% fetal calf serum (FCS). […] Briefly, cells were scraped by rubber policeman, suspended in 50 ml of 20 mM Tris-HCL (pH 7.5), 2 mM EDTA, 0.5 mM EGTA, 0.15 U/ml aprotinine, and 0.25 M sucrose, and homogenized by 50 strokes at 4°C in a Dounce homogenizer (40-ml size, Wheaton). The homogenized cells were ultracentrifuged at 100,000 xg for 60 min. The supernatant was purified on a DE52 column equilibrated with 20 mM Tris-HCL (pH 7.5), 2 mM EDTA, and 0.5 mM EGTA (buffer B), and washed well with this buffer. The C-kinase activity was eluted with buffer B containing 0.1 M NaCl.
The lipid mixture was sonicated in 30 »l of 20 mM Tris-HCl (pH 7.5) for 30 min. The liposomes in the tube were supplemented with the reaction mixture, consisting of 25 mM Tris-HCl (pH 7.5), 10 mM MgCl₂, 400 »M EDTA, 50 »M EGTA, 500 »M CaCl₂, 200 »g/ml Histone III-S, and 20 »M gamma-[³²P]-ATP (2 x 10⁶ cpm); final volume was 90 »l.
The reaction was initiated by addition of 10 »l of C-kinase fraction (containing 1-2 »g protein) prepared as described above, and the reaction mixture was incubated for 10 min at 30°C. […] The value without phosphatidylserine, 1,2-diolein, or Ca²⁺ were used as a control.

The test system of experiment [1] is human colonic cancer cells HRT-18. The experiment in a line: Inhibition of growth of human colonic cancer cells HRT-18 in vitro (cell count after 3 days). It counts as cell-based. The settings on record: HRT-18, 3 days. Here is the method: HRT-18 cells were seeded in plates in Dulbecco's modified Eagle's medium supplemented with 10% fetal calf serum (5 x 10⁵ cells per each 3 cm plate). After the cells were cultured overnight, the medium was replaced with the same media containing various concentrations of N,N-dimethyl- or N-monomethyl sphingosine, N-acetylsphingosine, and ceramide as shown in Fig. 4. Cultures were continued for 3 days, and cell numbers were counted. The percent inhibition of cell numbers in the presence of reagents was calculated as percent of control dishes, which contained no sphingosine derivatives.

Experiment [2] concerns mouse splenocytes. As to the kind of experiment: Inhibition of concanavalin-A-induced mitogenesis, mouse splenocytes. It counts as cell-based. The protocol: The effect of N,N-dimethyl-sphingosine (prepared from naturally occurring sphingolipid as described in Example 3) on conconavalin-A (con-A) -induced mitogenesis was tested using human peripheral blood lymphocytes and mouse splenocytes.
Inhibition of con-A-induced mitogenisis of mouse splenocytes was determined in an analogous manner.

Experiment [3] has as its system human peripheral blood lymphocytes. As to the kind of experiment: Inhibition of concanavalin-A-induced mitogenesis (3H-thymidine uptake), human lymphocytes. It counts as cell-based. The conditions noted are these: 2 »g con-A/ml. The protocol:
Peripheral blood lymphocytes isolated from human blood by known methods were cultured in RPMI containing 2 »g con-A/ml for 18 hours in multiple wells. Subsequently, various concentrations of N,N-dimethylsphingosine, sphingosine, or N-acetylsphingosine as shown in Fig. 6 were added to the culture media and cultured continuously for 5 hours, followed by addition of ³H-thymidine. The thymidine uptake over a 5-hour period was determined. The % inhibition of mitogenesis was calculated based on control value (without addition of any inhibitor).

For experiment [4], the system named is mouse splenocytes. The experiment in a line: Inhibition of IL-2-dependent mitogenesis, mouse splenocytes. It counts as cell-based. Here is the method:
The effect of N,N-dimethyl-sphingosine (prepared from naturally occurring sphingolipid as described in Example 3) on IL-2-dependent mitogenesis was tested using human peripheral blood lymphocytes and mouse splenocytes.
Inhibition of IL-2-induced mitogenesis of mouse splenocytes was determined in an analogous manner.

For a further experiment, the system named is HRT18 tumor cells. As to the kind of experiment: Inhibition of in vivo growth of HRT18 tumor cells in nude mice. The settings on record: 44 »g/200 »l in PBS injected at day 7, 11 and 15; tumor weight estimated by size; significant (p>0.005 as printed). Here is the method:
The effect of N,N-dimethyl-sphingosine (prepared from naturally occurring sphingolipid as described in Example 3) on in vivo growth of HRT18 tumor cells in nude mice was determined as follows.
1 x 10⁶ HRT-18 human colonic cancer cells were inoculated into nude mice at day 0 by known methods. N,N-dimethylsphingosine emulsified in phosphate buffered saline (PBS) (44 »g/200 »l) was injected at day 7, 11, and 15. Tumor growth weight in mg was estimated by the size of the tumors. Each group consisted of ten animals.

Experiment [5] relates to human peripheral blood lymphocytes. The experiment in a line: Inhibition of IL-2-dependent mitogenesis (3H-thymidine incorporation), human lymphocytes. It counts as cell-based. The settings on record: 0.5 U/ml IL-2. The protocol:
Human peripheral blood lymphocytes isolated from human blood by known methods were cultured in RPMI containing 0.5 U/ml IL-2. […] Mitogenesis was measured by incorporation of ³H-thymidine into DNA over a 5-hour period. Percent inhibition as compared to the control value (without addition of any inhibitor) was determined.

Results on 11 compounds are retold here after EP0381514B1, “Use of N-methyl-sphingosine as inhibitor of cell growth” (The Biomembrane Institute, priority 1989, dated 1990).

For `CCCCCCCCCCCCC/C=C/[C@@H](O)[C@@H](N)CO` [D-erythro-sphingenine, D(+)-erythro-sphingenine, reference compound], the “inhibitory activity of C-kinase” value in the experiment on C-kinase was “weak and similar inhibitory activity”. The “C-kinase ³²P incorporation” value in the experiment on C-kinase (lipid added at 50 »M) amounted to 18754 ± 2184. Also, the “C-kinase ³²P incorporation %” value in the experiment on C-kinase (lipid added at 50 »M, 50 µM) came to 47 ± 6%.

Take `CCCCCCCCCCCCC/C=C/[C@H](O)[C@H](N)CO` [L-erythro-sphingenine, L(-)-erythro-sphingenine, reference compound]: in the experiment on C-kinase, the “inhibitory activity of C-kinase” value is “weak and similar inhibitory activity”. Also, in the experiment on C-kinase (lipid added at 50 »M), the “C-kinase ³²P incorporation” value worked out at 18549 ± 2760. Further, the “C-kinase ³²P incorporation %” value in the experiment with C-kinase (lipid added at 50 »M, 50 µM) was 47 ± 7%.

Consider `CCCCCCCCCCCCC/C=C/[C@@H](O)[C@H](CO)N(C)C` [N,N-dimethyl-D-erythro-sphingenine], for which the “inhibitory activity of C-kinase” value in the experiment with C-kinase is on record as “strikingly strong inhibitory activity”. The “C-kinase ³²P incorporation” value in the experiment on C-kinase (lipid added at 2 »M) is on record as 34206 ± 1220; in the experiment on C-kinase (lipid added at 10 »M), 20563 ± 1173; with C-kinase (lipid added at 25 »M) it was 15214 ± 377; with C-kinase (lipid added at 50 »M), 5254. Besides, the “C-kinase ³²P incorporation %” value worked out at 86 ± 3% in the experiment with C-kinase (lipid added at 2 »M, 2 µM); 52 ± 3% with C-kinase (lipid added at 10 »M, 10 µM); 38 ± 1% in the experiment on C-kinase (lipid added at 25 »M, 25 µM); 13% in the experiment on C-kinase (lipid added at 50 »M, 50 µM).

Take `CCCCCCCCCCCCC/C=C/[C@H](O)[C@@H](CO)N(C)C` [N,N-dimethyl-L-erythro-sphingenine]: the “inhibitory activity of C-kinase” value in the experiment on C-kinase was “weaker inhibitory activity”. Moreover, the “C-kinase ³²P incorporation” value is reported as 37354 ± 1420 in the experiment with C-kinase (lipid added at 2 »M), 25583 ± 1931 in the experiment with C-kinase (lipid added at 10 »M), 21743 ± 577 in the experiment with C-kinase (lipid added at 25 »M) and 11020 in the experiment on C-kinase (lipid added at 50 »M). Further, the “C-kinase ³²P incorporation %” value with C-kinase (lipid added at 2 »M, 2 µM) was found to be 95 ± 4%; in the experiment on C-kinase (lipid added at 10 »M, 10 µM), 65 ± 5%; with C-kinase (lipid added at 25 »M, 25 µM), 55 ± 2%; in the experiment on C-kinase (lipid added at 50 »M, 50 µM) it was 28%.

For `CCCCCCCCCCCCC/C=C/[C@H](O)[C@H](CO)N(C)C` [N,N-dimethyl-L-threo-sphingosine], the “inhibition of cell growth” value in experiment [1] (at 12.5 »M concentration) is listed as “significantly inhibited”.

For `CCCCCCCCCCCCC/C=C/[C@@H](O)[C@H](CO)N(C)C` [N,N-dimethyl-sphingosine], the “inhibitory effect on concanavalin-A-induced mitogenesis” value with mouse splenocytes [2] is recorded as “strong inhibitory effect”. Besides, the “inhibition of con-A-dependent growth stimulation” value in experiment [3] is listed as “greatly inhibited”. Moreover, the “inhibitory effect on IL-2-dependent mitogenesis” value in the experiment on mouse splenocytes [4] is reported as “strong inhibitory effect”. Further, the inhibition of growth result with HRT18 tumor cells is given as “more than 50%”. Also, the “inhibition of cell growth” value in experiment [1] (at 12.5 »M concentration) is given as “significantly inhibited”. The “inhibition of IL-2-dependent mitogenesis” value in experiment [5] was “invariably inhibited”.

On to `CCCCCCCCCCCCC/C=C/[C@@H](O)[C@H](CO)NC(C)=O` [N-acetylsphingosine, reference compound], for which, on C-kinase, the “Inhibition of C-kinase (concentration in »M yielding 50% inhibition)” value is “no inhibition”. Besides, the “inhibition of cell growth” value in experiment [1] (at 150 »M concentration) is listed as “minimum inhibition”. In addition, in experiment [5], the “inhibition of IL-2-dependent mitogenesis” value is given as “less so”.

With `CCCCCCCCCCCCC/C=C/[C@@H](O)[C@@H](N)CO` [sphingosine], the “inhibition of IL-2-dependent mitogenesis” value in experiment [5] is on record as “less so”.

In the case of Ceramide [reference compound], the “Inhibition of C-kinase (concentration in »M yielding 50% inhibition)” value at C-kinase is reported as “no inhibition”. Also, the “inhibition of cell growth” value in experiment [1] (at 150 »M concentration) is “minimum inhibition”.

With “Lactosylsphingosine [reference compound]”, the “Inhibition of C-kinase (concentration in »M yielding 50% inhibition)” value at C-kinase is on record as “no inhibition”.

As to N-monomethyl-sphingosine, the “inhibition of cell growth” value in experiment [1] (at 12.5 »M concentration) is given as “significantly inhibited”.
